Data set [1] has as its system central benzodiazepine receptor sites. Kind of data set: test of affinity for central benzodiazepine receptor sites. Particulars: relative to racemic zopiclone; technique of Blanchard and Julou. Format: binding.
Data set [2] has as its system pentetrazol-induced convulsions. Nature of the data set: test of antagonist activity with respect to pentetrazol-induced convulsions. The format is in vivo. The conditions noted are these: relative to racemic zopiclone; technique of Everett and Richards.
For data set [3], the system named is writhing reflex. Kind of data set: writhing reflex test in mice. The format is in vivo. The conditions noted are these: relative to racemic zopiclone, technique of Zbinden and Randall. Background: Writhing tests count abdominal constrictions after an irritant is injected.
Data set [4] relates to animals. Nature of the data set: pharmacological properties in animals. Format: in vivo.
For data set [5], the system named is mice. Nature of the data set: acute oral toxicity (LD50) in mice. Particulars: for toxicity compared with the racemate: relative to racemic zopiclone.
Data set [6] in a line: acute oral toxicity (LD50) in mice. Particulars: mouse, in vivo, po.

For `CN1CCN(C(=O)O[C@H]2c3nccnc3C(=O)N2c2ccc(Cl)cn2)CC1` (single isomer, unassigned) [dextrorotatory isomer], in data set [1], the “potency of action, affinity for central benzodiazepine receptor sites” value is on record as “approximately twice as active”. For the same compound, in data set [2], the “potency of action, antagonist activity with respect to pentetrazol-induced convulsions” value is recorded as “approximately twice as active”. Further, the “potency of action, writhing reflex test” value in data set [3] is given as “approximately twice as active”. The “properties displayed in animals” value in data set [4] was “hypnotic, sedative, anxiolytic, muscle-relaxant and anticonvulsant properties”. Also, the “toxicity (LD50)” value in data set [5] (administered orally to mice) is around 1500 mg/kg. Also, the “toxicity compared with the racemate” value in data set [5] is listed as “lower toxicity than that of the racemate”.
For `CN1CCN(C(=O)OC2c3nccnc3C(=O)N2c2ccc(Cl)cn2)CC1` (racemic) [zopiclone, 6-(5-chloro-2-pyridyl)-5-[(4-methyl-1-piperazinyl)carbonyloxy]-7-oxo-6,7-dihydro-5H-pyrrolo[3,4-b]pyrazine, reference compound], the LD50 in data set [6] is around 850 mg/kg.
Take `CN1CCN(C(=O)O[C@@H]2c3nccnc3C(=O)N2c2ccc(Cl)cn2)CC1` (single isomer, unassigned) [laevorotatory isomer, reference compound]: in data set [1], the “potency of action, affinity for central benzodiazepine receptor sites” value was “almost inactive”. The “potency of action, antagonist activity with respect to pentetrazol-induced convulsions” value in data set [2] is “almost inactive”. For the same compound, in data set [3], the “potency of action, writhing reflex test” value was “almost inactive”. In addition, the “toxicity compared with the racemate” value in data set [5] is recorded as “more toxic than the racemate”.

A word on the LD50: it is the dose at which mortality reaches 50%. The low end stands for a more toxic substance, the high end for a less toxic substance.

The record behind these values is patent US7381724B2, “Optically active 5H-pyrrolo[3,4-b]pyrazine derivative, its preparation and pharmaceutical compositions containing same” (Sepracor Inc., priority 1991, dated 2008).
